From patent US12692232B2, “Indole carboxamide compound, preparation therefor and use thereof” (NANJING RUISHUNING MEDICAL TECHNOLOGY CO., LTD., priority 2021, dated 2026)

Experiments:
TRPC6 channel = molecular target: T1, TRPC6 channel (Homo sapiens, UniProt Q9Y210); experiment: In vitro binding to TRPC6 protein by microscale thermophoresis (MST); design: fused on or other part: NT-647-NHS fluorescent dye label (chemical labelling for MST)
T1 sequence (Q9Y210 1-931): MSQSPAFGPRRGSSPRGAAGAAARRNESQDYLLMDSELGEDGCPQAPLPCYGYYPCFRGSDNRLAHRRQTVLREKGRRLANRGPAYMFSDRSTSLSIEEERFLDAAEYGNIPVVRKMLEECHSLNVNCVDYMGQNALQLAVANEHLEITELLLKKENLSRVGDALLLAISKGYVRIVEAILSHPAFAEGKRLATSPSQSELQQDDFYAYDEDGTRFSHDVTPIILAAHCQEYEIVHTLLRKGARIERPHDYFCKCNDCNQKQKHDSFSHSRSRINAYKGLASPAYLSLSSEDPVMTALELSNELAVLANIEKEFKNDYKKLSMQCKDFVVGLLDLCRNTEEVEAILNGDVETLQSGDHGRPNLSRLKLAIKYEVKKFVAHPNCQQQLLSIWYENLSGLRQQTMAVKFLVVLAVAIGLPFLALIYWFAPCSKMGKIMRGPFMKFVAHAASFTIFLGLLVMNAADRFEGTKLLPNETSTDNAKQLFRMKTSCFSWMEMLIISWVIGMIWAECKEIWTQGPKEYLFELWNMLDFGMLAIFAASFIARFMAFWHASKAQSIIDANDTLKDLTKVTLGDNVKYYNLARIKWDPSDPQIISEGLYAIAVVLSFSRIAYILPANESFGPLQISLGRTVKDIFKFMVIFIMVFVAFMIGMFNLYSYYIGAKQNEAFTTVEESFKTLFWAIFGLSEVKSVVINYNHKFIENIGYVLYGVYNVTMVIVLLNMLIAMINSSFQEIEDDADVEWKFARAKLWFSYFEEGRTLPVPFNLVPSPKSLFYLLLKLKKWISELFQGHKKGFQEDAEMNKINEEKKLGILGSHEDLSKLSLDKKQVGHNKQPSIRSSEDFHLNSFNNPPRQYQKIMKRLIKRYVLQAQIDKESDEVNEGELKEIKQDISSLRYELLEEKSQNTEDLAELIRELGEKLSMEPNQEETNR
Method: The binding ability of the compounds of the present invention (as exemplified by the compounds obtained in Examples 1 to 3) to the TRPC6 protein was determined using the microscale thermophoresis (MST) method. The method was as follows:
(§1) Preparation and labelling of protein solution: TRPC6 protein dry powder (Alomone Labs, Israel) was prepared into a protein mother solution at a concentration of 10 μM using PBS-Buffer, and 35 μL of the protein stock solution was taken to the Buffer exchange A column, and centrifuged to obtain the Tris-removed protein. 34 μL Labelling Buffer was added to the Tris-removed protein according to the instructions of the Protein Fluorescent Labelling Kit (model L001). After mixing well, 3 μL of NT-647-NHS fluorescent dye was added and thus obtained mixture was incubated for 20 minutes. The protein-dye mixture was transferred to the purification B column, 300 μL of PBS-Buffer was added, and the target protein, i.e. fluorescent labelled protein TRPC6, was collected by centrifugation (with a final concentration of about 2 μM). 180 μL of target protein was mixed with 1620 μL of PBS-Buffer, and then 9 μl of Tween-20 were added thereto. Thus the resulting mixture was mixed and then centrifuged to obtain the target protein solution.
Preparation of compound solutions: the compounds were prepared separately with DMSO to storage solutions with a concentration of 10 μM. 10 μL of each storage solution was placed in a […] EP tube, 90 μL of PBS was added thereto and the resulting mixture was thoroughly mixed to prepare 100 μL of working solution at a concentration of 1 μM for later use. Ligand gradient dilutions were made for a total of 16 concentrations, and 10 μL of 10% DMSO-Buffer was added to each of the 15 gradients except gradient 1, followed by the addition of 10 μL of ligand working solution to gradients 1 and 2, respectively. The liquid in tube 2 was mixed and then 10 μL therein was taken into tube 3, and dilution was carried out in this manner until tube 16. […]

TRPC3 protein = molecular target: T2, TRPC3 protein (Homo sapiens, UniProt Q13507); experiment: MST binding to TRPC3 protein; details: for affinity strength to TRPC6 protein higher than to TRPC3 protein: MST Kd ratio
T2 sequence (Q13507 1-921): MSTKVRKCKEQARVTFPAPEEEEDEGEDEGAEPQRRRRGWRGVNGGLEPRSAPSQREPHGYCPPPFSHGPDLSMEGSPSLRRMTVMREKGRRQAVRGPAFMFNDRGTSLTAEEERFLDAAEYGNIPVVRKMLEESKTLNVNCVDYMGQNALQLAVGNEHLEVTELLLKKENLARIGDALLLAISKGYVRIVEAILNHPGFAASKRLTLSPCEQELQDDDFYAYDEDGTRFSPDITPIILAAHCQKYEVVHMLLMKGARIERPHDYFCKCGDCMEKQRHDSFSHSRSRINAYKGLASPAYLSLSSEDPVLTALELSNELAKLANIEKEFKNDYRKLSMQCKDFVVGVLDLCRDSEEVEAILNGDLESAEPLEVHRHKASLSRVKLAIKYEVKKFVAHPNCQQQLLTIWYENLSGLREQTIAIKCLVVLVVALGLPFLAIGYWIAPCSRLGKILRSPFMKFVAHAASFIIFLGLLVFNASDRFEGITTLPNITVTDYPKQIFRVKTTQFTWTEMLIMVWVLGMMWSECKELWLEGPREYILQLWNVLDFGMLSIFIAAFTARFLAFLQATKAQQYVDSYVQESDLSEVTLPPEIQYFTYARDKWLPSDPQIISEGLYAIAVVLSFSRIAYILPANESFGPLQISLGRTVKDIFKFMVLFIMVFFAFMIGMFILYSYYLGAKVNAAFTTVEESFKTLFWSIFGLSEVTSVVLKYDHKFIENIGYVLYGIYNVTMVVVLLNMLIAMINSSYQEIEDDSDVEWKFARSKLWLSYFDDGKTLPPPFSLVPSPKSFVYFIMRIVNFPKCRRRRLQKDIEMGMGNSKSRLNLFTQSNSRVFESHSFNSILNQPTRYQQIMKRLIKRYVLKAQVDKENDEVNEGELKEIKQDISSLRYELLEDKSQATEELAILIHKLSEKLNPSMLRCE
Method: as §1
Preparation of compound solutions: the compounds were prepared separately with DMSO to storage solutions with a concentration of […]. 10 μL of each storage solution was placed in a […] EP tube, 90 μL of PBS was added thereto and the resulting mixture was thoroughly mixed to prepare 100 μL of working solution at a concentration of 1 μM for later use. Ligand gradient dilutions were made for a total of 16 concentrations, and 10 μL of 10% DMSO-Buffer was added to each of the 15 gradients except gradient 1, followed by the addition of 10 μL of ligand working solution to gradients 1 and 2, respectively. The liquid in tube 2 was mixed and then 10 μL therein was taken into tube 3, and dilution was carried out in this manner until tube 16. Tube 16 was mixed and 10 μL therein was taken and discarded, and the remainder was kept for later use.
Detection and analysis: 10 μL of protein solution was added to the 16 compound gradient dilutions respectively and mixed, and the resultant mixtures were transferred to capillary tubes sequentially to start detection on machine. After loading the data, the MST analysis model and Kd Model were selected to obtain the fitting curve and dissociation constant (Kd).
The binding ability of the compounds of the present invention (as exemplified by the compounds 1-1 and 2-1 obtained in Examples 1 and 3) for other TRPC proteins (e.g., TRPC1, TRPC3, TRPC4, TRPC5, and TRPC7) was determined using the microscale thermophoresis (MST) method. The method was as follows:
The affinity of the compounds of the present invention with TRPC1, TRPC3, TRPC4, TRPC5 and TRPC7 proteins, respectively, was determined by the same method as in Example 5.

| SMILES | Kd (TRPC6 channel) | affinity strength to TRPC6 protein higher than to TRPC3 protein (TRPC3 protein) | Kd (TRPC3 protein; MST) |
| --- | --- | --- | --- |
| Cn1c(C(=O)NCCC(=O)O)cc2ccccc21 [3-[(1-methyl-1H-indole-2-carbonyl)amino]propionic acid, reference compound] | 29.78 ± 0.26 µM | 27 fold |  |
| CC(=O)OCCCNC(=O)c1c(C=O)c2ccccc2n1C [compound 1-1, propyl 3-[(3-formyl-1-methyl-1H-indole-2-carbonyl)amino]acetate] | 12 ± 3.61 µM | 81 fold |  |
| Cn1c(C(=O)NCCCOC(=O)c2ccccc2)c(C=O)c2ccccc21 [compound 2-1] | 19 ± 3.15 µM | 51 fold | 1.4 µM |
